Here are results for 31 molecules from patent publication US9382197B2, “Substituted hydroxamic acids and uses thereof” (Millennium Pharmaceuticals, Inc., priority 2010, dated 2016).

Structures are written as SMILES. pIC50: −log10 of the molar value.

The target in the first experiment is T1, purified human HDAC6 (Homo sapiens, UniProt Q9UBN7).
T1 construct: purchased BPS Bioscience 5006
T1 sequence (Q9UBN7 1-1215): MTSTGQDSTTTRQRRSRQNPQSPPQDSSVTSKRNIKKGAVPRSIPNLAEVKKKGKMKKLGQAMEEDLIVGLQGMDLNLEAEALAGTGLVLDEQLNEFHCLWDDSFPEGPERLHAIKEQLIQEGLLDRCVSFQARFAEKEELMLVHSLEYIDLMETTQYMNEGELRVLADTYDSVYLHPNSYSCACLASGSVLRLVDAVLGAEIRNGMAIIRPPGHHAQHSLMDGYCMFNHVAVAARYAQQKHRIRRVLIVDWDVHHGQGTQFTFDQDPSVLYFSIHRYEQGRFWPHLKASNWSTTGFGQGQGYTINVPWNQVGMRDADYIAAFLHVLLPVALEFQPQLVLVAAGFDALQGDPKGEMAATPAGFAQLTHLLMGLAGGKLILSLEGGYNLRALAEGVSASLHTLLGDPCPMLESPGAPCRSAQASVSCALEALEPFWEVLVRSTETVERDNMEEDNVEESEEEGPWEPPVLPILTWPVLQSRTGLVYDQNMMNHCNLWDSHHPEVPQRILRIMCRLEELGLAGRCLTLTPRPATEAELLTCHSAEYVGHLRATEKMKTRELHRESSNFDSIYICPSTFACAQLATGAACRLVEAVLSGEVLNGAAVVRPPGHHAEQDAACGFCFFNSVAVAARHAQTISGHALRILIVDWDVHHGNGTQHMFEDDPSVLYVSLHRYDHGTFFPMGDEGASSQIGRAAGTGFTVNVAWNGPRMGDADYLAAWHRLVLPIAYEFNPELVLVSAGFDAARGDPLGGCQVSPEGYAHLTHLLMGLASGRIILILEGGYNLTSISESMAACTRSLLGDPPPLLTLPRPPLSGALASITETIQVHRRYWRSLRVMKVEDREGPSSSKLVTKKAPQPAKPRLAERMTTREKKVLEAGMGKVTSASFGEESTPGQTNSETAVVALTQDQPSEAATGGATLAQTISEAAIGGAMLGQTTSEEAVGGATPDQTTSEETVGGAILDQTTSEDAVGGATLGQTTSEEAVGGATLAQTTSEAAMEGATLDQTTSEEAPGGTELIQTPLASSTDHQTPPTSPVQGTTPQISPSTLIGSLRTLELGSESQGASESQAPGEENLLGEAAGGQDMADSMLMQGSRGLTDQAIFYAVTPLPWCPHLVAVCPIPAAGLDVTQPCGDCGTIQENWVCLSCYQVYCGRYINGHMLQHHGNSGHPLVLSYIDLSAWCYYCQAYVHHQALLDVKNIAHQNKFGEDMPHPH
Briefly: HDAC6 Enzyme Assay. Type of experiment: biochemical. To be noted: bin: greater than 500 nM and less than 1 μM (lower bound in nM, upper bound in μM). Here is the method: To measure the inhibition of HDAC6 activity, purified human HDAC6 (BPS Bioscience; Cat. No. 5006) is incubated with substrate Ac-Arg-Gly-Lys(Ac)-AMC peptide (Bachem Biosciences; Cat. No. 1-1925) for 1 hour at 30° C. in the presence of test compounds or vehicle DMSO control. The reaction is stopped with the HDAC inhibitor trichostatin A (Sigma; Cat. No. T8552) and the amount of Arg-Gly-Lys-AMC generated is quantitated by digestion with trypsin (Sigma; Cat. No. T1426) and subsequent measurement of the amount of AMC released using a fluorescent plate reader (Pherastar; BMG Technologies) set at Ex 340 nm and Em 460 nm. Concentration response curves are generated by calculating the fluorescence increase in test compound-treated samples relative to DMSO-treated controls, and enzyme inhibition (IC50) values are determined from those curves.
In the case of `C[C@H](NC(=O)c1ccc(-c2ccccc2)cc1)c1cccc(C(=O)NO)c1` [Compound I-393, N-((1S)-1-{3-[(hydroxyamino)carbonyl]phenyl}ethyl)biphenyl-4-carboxamide], the IC50 was 500 to 1000 nM.

Take `CC(NC(=O)NC(C)(C)C)c1ccc(C(=O)NO)cc1` (stereo not shown) [Compound I-339, 4-(1-{[(tert-butylamino)carbonyl]amino}ethyl)-N-hydroxybenzamide]: the half-maximal inhibitory concentration (IC50) fell in the range of 500 to 1000 nM. Same read-out and setting: under `Cc1cc(C(=O)NC(c2ccc(C(=O)NO)cc2)C(C)(C)C)c(C)o1` (stereo not shown) [Compound I-9, N-(1-{4-[(hydroxyamino)carbonyl]phenyl}-2,2-dimethylpropyl)-2,5-dimethyl-3-furamide] stands 500 to 1000 nM. Take `CC(C)(C)C(NC(=O)c1ccc(C(F)(F)F)cc1)c1ccc(C(=O)NO)cc1` (stereo not shown) [Compound I-303, 4-(2,2-dimethyl-1-{[4-(trifluoromethyl)benzoyl]amino}propyl)-N-hydroxybenzamide]: the IC50 was in the range of 500 to 1000 nM. Regarding `Cc1nc(C(=O)NC(C)c2cccc(C(=O)NO)c2)cs1` (stereo not shown) [Compound I-29, N-(1-{3-[(hydroxyamino)carbonyl]phenyl}ethyl)-2-methyl-1,3-thiazole-4-carboxamide], the IC50 was in the range of 500 to 1000 nM.

Still in this experiment, the particulars now being: bin: greater than 1 μM.
Take `CC(NC(=O)c1cc2oc(-c3ccc(C(F)(F)F)cc3)cc2n1C)c1cccc(C(=O)NO)c1` (stereo not shown) [Compound I-72, N-(1-{3-[(hydroxyamino)carbonyl]phenyl}ethyl)-4-methyl-2-[4-(trifluoromethyl)phenyl]-4H-furo[3,2-b]pyrrole-5-carboxamide]: the pIC50 is below 6.00. Still for that read-out and setting: next, `CC(NC(=O)CC1CC1)c1ccc(C(=O)NO)cc1` (stereo not shown) [Compound I-379, 4-{1-[(cyclopropylacetyl)amino]ethyl}-N-hydroxybenzamide]: below 6.00; `Cc1nc(CC(=O)NC(C)c2ccc(C(=O)NO)cc2)c(C)s1` (stereo not shown) [Compound I-217, 4-(1-{[(2,5-dimethyl-1,3-thiazol-4-yl)acetyl]amino}ethyl)-N-hydroxybenzamide]: below 6.00; `CC(C)(C)C(NC(=O)C12CC3CC(CC(C3)C1)C2)c1ccc(C(=O)NO)cc1` (stereo not shown) [Compound I-162, N-(1-{4-[(hydroxyamino)carbonyl]phenyl}-2,2-dimethylpropyl)adamantane-1-carboxamide]: below 6.00.

In turn, `CC(NC(=O)C1CCCC1)c1cccc(C(=O)NO)c1` (stereo not shown) [Compound I-311, 3-{1-[(cyclopentylcarbonyl)amino]ethyl}-N-hydroxybenzamide] had a pIC50 below 6.00. The same measure, in the same setting: under `COc1cc(C(=O)NO)ccc1C(C)NC(=O)C(C)(C)C` (stereo not shown) [Compound I-484, 4-{1-[(2,2-dimethylpropanoyl)amino]ethyl}-N-hydroxy-3-methoxybenzamide] stands below 6.00; under `Cn1c(C(=O)NC(c2ccc(C(=O)NO)cc2)C(C)(C)C)cc(Cl)c1Cl` (stereo not shown) [Compound I-386, 4,5-dichloro-N-(1-{4-[(hydroxyamino)carbonyl]phenyl}-2,2-dimethylpropyl)-1-methyl-1H-pyrrole-2-carboxamide], below 6.00.

`CC(C)C(NC(=O)C(c1ccccc1)C(C)C)c1ccc(C(=O)NO)cc1` (stereo not shown) [Compound I-289, N-hydroxy-4-{2-methyl-1-[(3-methyl-2-phenylbutanoyl)amino]propyl}benzamide] had a negative logarithm of the IC50 (pIC50) below 6.00. Molecule `CC(NC(=O)CC1CCCC1)c1ccc(C(=O)NO)cc1` (stereo not shown) [Compound I-370, 4-{1-[(cyclopentylacetyl)amino]ethyl}-N-hydroxybenzamide] gave a pIC50 below 6.00. On the same count and under the same terms, under `C[C@@H](NC(=O)NC12CC3CC(CC(C3)C1)C2)c1cccc(C(=O)NO)c1` [Compound I-343, 3-[(1R)-1-({[1-adamantylamino]carbonyl}amino)ethyl]-N-hydroxybenzamide] stands below 6.00.

The same experiment, now with this note: purified human HDAC6, substrate Ac-Arg-Gly-Lys(Ac)-AMC, 1 hour at 30° C.; reported as bins.
`CC(NC(=O)C1CCC1)c1ccc(C(=O)NO)cc1` (stereo not shown) [Compound I-21, 4-{1-[(cyclobutylcarbonyl)amino]ethyl}-N-hydroxybenzamide]: the negative logarithm of the IC50 (pIC50) was 6.30 to 7.00. The molecule `CCC[C@@H](NC(=O)c1ccc(-c2ccccc2)cc1)c1ccc(C(=O)NO)cc1` [Compound I-274, N-((1R)-1-{4-[(hydroxyamino)carbonyl]phenyl}butyl)biphenyl-4-carboxamide] showed a pIC50 above 7.00. Same read-out and setting: next, `CC(C)(C)C(NC(=O)c1cccs1)c1ccc(C(=O)NO)cc1` (stereo not shown) [Compound I-215, N-(1-{4-[(hydroxyamino)carbonyl]phenyl}-2,2-dimethylpropyl)thiophene-2-carboxamide]: 6.30 to 7.00; `CC(C)Oc1ccc(C(=O)NC(C)c2ccc(C(=O)NO)cc2)cc1` (stereo not shown) [Compound I-38, N-(1-{4-[(hydroxyamino)carbonyl]phenyl}ethyl)-4-isopropoxybenzamide]: above 7.00. On the same count and under the same terms, next, `CC(NC(=O)c1cn2ccccc2n1)c1ccc(C(=O)NO)cc1` (stereo not shown) [Compound I-125, N-(1-{4-[(hydroxyamino)carbonyl]phenyl}ethyl)imidazo[1,2-a]pyridine-2-carboxamide]: above 7.00; `Cc1oc(-c2ccccc2)nc1CC(=O)NC(c1ccc(C(=O)NO)cc1)C(C)C` (stereo not shown) [Compound I-48, N-hydroxy-4-(2-methyl-1-{[(5-methyl-2-phenyl-1,3-oxazol-4-yl)acetyl]amino}propyl)benzamide]: 6.30 to 7.00; `CC(C)c1cc(C(=O)NC(C)c2ccc(C(=O)NO)cc2)n(C)n1` (stereo not shown) [Compound I-186, N-(1-{4-[(hydroxyamino)carbonyl]phenyl}ethyl)-3-isopropyl-1-methyl-1H-pyrazole-5-carboxamide]: above 7.00. `Cc1c(C(=O)N[C@H](C)c2ccc(C(=O)NO)cc2)sc2ccccc12` [Compound I-12, N-((1R)-1-{4-[(hydroxyamino)carbonyl]phenyl}ethyl)-3-methyl-1-benzothiophene-2-carboxamide] had a pIC50 above 7.00. On the same count and under the same terms, next, `CC(NC(=O)C(C)(C)c1ccc(Cl)cc1)c1ccc(C(=O)NO)cc1` (stereo not shown) [Compound I-378, 4-(1-{[2-(4-chlorophenyl)-2-methylpropanoyl]amino}ethyl)-N-hydroxybenzamide]: above 7.00. As to `CC(NC(=O)C12CC3CC(CC(C3)C1)C2)c1ccc(C(=O)NO)cc1` (stereo not shown) [Compound I-3, N-(1-{4-[(hydroxyamino)carbonyl]phenyl}ethyl)adamantane-1-carboxamide], the pIC50 was above 7.00. The molecule `CC(NC(=O)Nc1ccccc1F)c1ccc(C(=O)NO)cc1` (stereo not shown) [Compound I-74, 4-[1-({[(2-fluorophenyl)amino]carbonyl}amino)ethyl]-N-hydroxybenzamide] had a negative-log IC50 (pIC50) above 7.00. Consider `CC(NC(=O)CC1Cc2ccccc2C1)c1ccc(C(=O)NO)cc1` (stereo not shown) [Compound I-357, 4-{1-[(2,3-dihydro-1H-inden-2-ylacetyl)amino]ethyl}-N-hydroxybenzamide], for which the pIC50 was above 7.00.

In the case of `CC(NC(=O)C1CC=CCC1)c1ccc(C(=O)NO)cc1` (stereo not shown) [Compound I-348, 4-{1-[(cyclohex-3-en-1-ylcarbonyl)amino]ethyl}-N-hydroxybenzamide], the negative logarithm of the IC50 (pIC50) was above 7.00.

`CC(NC(=O)Nc1c(F)cccc1F)c1ccc(C(=O)NO)cc1` (stereo not shown) [Compound I-261, 4-[1-({[(2,6-difluorophenyl)amino]carbonyl}amino)ethyl]-N-hydroxybenzamide]: the negative-log IC50 (pIC50) is above 7.00. Same read-out and setting: under `CC(C)[C@@H](NC(=O)C1(C)CCCCC1)c1ccc(C(=O)NO)cc1` [Compound I-126, N-hydroxy-4-((1R)-2-methyl-1-{[(1-methylcyclohexyl)carbonyl]amino}propyl)benzamide] stands 6.30 to 7.00; under `CC(C)[C@@H](NC(=O)NCCc1ccccc1)c1ccc(C(=O)NO)cc1` [Compound I-522, N-hydroxy-4-[(1R)-2-methyl-1-({[(2-phenylethyl)amino]carbonyl}amino)propyl]benzamide], above 7.00.
